Source: patent US20190119284A1, “ErbB Inhibitors and Uses Thereof” (The Regents of the University of California, priority 2016, published 2019)
pIC50: −log10 of the molar value.

How the values were obtained:
Type in all cases: cell-based
HER2+/2VE Ba/F3 line = assay: Ba/F3 proliferation assay, HER2+/2VE; settings: Mus musculus, BaF3; Tables 7 and 8
Method: (§1) Proliferation Assays. For adherent cell lines, cells were plated onto opaque white 96 well plates (Greiner cat #655083) and allowed to adhere overnight. The following day media was changed to fresh media that contained either DMSO or the indicated concentration of drug plus NRG (50 ng/mL final concentration) as indicated. Plates were incubated at 37° C. for 72 h and proliferation was read out using Cell Titer Glo (Promega) according to the manufacturer's protocol. For Ba/F3 cell proliferation, cells, drug dilution, and any necessary growth factors (10 ng/mL IL-3 or 6.25 ng/mL NRG) were combined in a well of a 96 well plate. Plates were incubated at 37° C. for 48 h and proliferation was read out using Cell Titer Glo according to the manufacturer's protocol. For all normalized assays, proliferation was normalized to the DMSO control condition. All graphs were plotted in GraphPad Prism 6 and fit with a non-linear regression of the log(inhibitor) vs response with a variable slope where shown. All graphs are averages (+/−standard deviation) of biological triplicates each performed in technical triplicate unless otherwise noted. If only one biological replicate was performed standard deviations were derived from the technical replicates.

Axl+ Ba/F3 cells = biological target: T1, Axl+ Ba/F3 cells (Homo sapiens, UniProt P30530); assay: Ba/F3 proliferation assay, Axl+; settings: Tables 7 and 8; read-out: Ba/F3 line IC50, Axl+
T1 sequence (P30530 1-894): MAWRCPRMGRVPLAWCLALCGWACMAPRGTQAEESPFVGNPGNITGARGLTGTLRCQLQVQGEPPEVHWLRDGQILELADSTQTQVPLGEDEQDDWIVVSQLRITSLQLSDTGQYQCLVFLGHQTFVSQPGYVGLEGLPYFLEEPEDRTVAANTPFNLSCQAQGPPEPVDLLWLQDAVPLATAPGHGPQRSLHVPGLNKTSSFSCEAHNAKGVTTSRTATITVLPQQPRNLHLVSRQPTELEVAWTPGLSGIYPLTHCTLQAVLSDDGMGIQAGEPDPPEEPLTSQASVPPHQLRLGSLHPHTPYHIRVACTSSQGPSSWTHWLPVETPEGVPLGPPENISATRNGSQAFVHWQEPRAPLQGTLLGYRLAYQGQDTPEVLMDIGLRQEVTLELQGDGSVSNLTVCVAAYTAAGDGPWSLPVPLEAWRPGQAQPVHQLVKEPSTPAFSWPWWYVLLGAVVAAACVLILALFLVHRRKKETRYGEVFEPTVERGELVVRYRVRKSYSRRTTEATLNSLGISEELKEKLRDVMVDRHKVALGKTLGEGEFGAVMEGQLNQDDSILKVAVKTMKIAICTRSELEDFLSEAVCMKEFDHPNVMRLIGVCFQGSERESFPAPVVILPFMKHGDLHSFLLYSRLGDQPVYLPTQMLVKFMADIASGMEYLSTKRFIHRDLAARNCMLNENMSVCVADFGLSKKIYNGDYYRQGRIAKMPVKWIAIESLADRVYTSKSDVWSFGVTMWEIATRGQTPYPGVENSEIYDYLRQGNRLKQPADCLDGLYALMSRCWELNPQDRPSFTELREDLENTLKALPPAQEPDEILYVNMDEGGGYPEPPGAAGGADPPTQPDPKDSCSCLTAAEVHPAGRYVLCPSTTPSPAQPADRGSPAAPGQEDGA
Method: (§2) To validate the screen and test the effectiveness of counter-screening with either the same 2YF/3wt Ba/F3 cell line or the parental Ba/F3's in the presence of IL-3 to remove cytotoxic primary hits, we first tested a panel of kinase inhibitors with established mechanisms of action.
For Axl+ cells, the transduced cells were spun down at 500×g for 5 min and resuspended in media supplemented with 10 ng/mL IL-3 and 3 μg/mL puromycin (Invitrogen). Cells were maintained in these conditions for 7 days, passaging as required. After 7 days the cells were spun down, washed with fresh media, and then suspended in IL-3 free media. The cells were maintained in these conditions for 2 weeks to select for an IL-3 independent population of Axl+ driven cells.
as §1

[1] = biological target: 2YF/3wt + NRG Ba/F3 cells (HER2YF/HER3wt) (Homo sapiens, UniProt P04626, Y1005F/Y1023F/Y1112F/Y1127F/Y1139F/Y1196F/Y1221F/Y1222F/Y1248F, cells depend on it); assay: Ba/F3 proliferation assay, 2YF/3wt + NRG; settings: Tables 7 and 8; read-out: Ba/F3 line IC50, HER2YF/HER3 + NRG
Text: Ba/F3 cells are normally dependent on IL-3 signaling for their proliferation and survival, but can be made dependent on introduced oncogenic signals. We sequentially selected transduced Ba/F3 cells for populations stably expressing HER3 and then HER2. To ensure that all of the proliferative signal could be attributed to HER2/HER3 heterodimers, rather than HER2 homodimers, the 9 C-terminal tyrosines in HER2 were mutated to phenylalanine (HER2YF). We then withdrew IL-3 and supplemented the media with NRG to select for NRG dependent HER2YF/HER3wt cells (2YF/3wt).
For the 2YF/3wt cells, the parental cells were first transduced with HER3 according to the protocol above and were then spun down at 500×g for 5 min and re-suspended in media supplemented with 10 ng/mL IL-3 and 3 μg/mL puromycin (Invitrogen). Cells were maintained in these conditions for seven days, passaging as required. After seven days the cells were spun down, washed with fresh media, and then used for a subsequent round of transduction according to the protocol above with HER2YF virus. […] The cells were maintained in these conditions for seven days, passaging as required. After seven days the cells were spun down, washed with fresh media, and then suspended in media supplemented with 10 ng/mL of NRG. Cells were maintained in these conditions for seven days to select for a NRG dependent population of 2YF/3wt Ba/F3 cells that were then maintained as described above. The same protocol was used for the 2YF-L755S/3wt, 2YF-YVMA/3wt, and 2YF-VC/3wt cell lines using the indicated constructs.
Proliferation Assays. […] The following day media was changed to fresh media that contained either DMSO or the indicated concentration of drug plus NRG (50 ng/mL final concentration) as indicated. […] For all normalized assays, proliferation was normalized to the DMSO control condition. All graphs were plotted in GraphPad Prism 6 and fit with a non-linear regression of the log(inhibitor) vs response with a variable slope where shown. All graphs are averages (+/−standard deviation) of biological triplicates each performed in technical triplicate unless otherwise noted. If only one biological replicate was performed standard deviations were derived from the technical replicates.

[2] = system: parental Ba/F3 cells + IL-3; assay: Ba/F3 proliferation assay, Parental + IL-3; settings: Mus musculus, BaF3; Tables 7 and 8; read-out: Ba/F3 line IC50, Parental + IL-3
Method: as §2, §1

Chain of 2YF/3wt + NRG Ba/F3 cells (HER2YF/HER3wt) (P04626 whole entry Y1005F/Y1023F/Y1112F/Y1127F/Y1139F/Y1196F/Y1221F/Y1222F/Y1248F): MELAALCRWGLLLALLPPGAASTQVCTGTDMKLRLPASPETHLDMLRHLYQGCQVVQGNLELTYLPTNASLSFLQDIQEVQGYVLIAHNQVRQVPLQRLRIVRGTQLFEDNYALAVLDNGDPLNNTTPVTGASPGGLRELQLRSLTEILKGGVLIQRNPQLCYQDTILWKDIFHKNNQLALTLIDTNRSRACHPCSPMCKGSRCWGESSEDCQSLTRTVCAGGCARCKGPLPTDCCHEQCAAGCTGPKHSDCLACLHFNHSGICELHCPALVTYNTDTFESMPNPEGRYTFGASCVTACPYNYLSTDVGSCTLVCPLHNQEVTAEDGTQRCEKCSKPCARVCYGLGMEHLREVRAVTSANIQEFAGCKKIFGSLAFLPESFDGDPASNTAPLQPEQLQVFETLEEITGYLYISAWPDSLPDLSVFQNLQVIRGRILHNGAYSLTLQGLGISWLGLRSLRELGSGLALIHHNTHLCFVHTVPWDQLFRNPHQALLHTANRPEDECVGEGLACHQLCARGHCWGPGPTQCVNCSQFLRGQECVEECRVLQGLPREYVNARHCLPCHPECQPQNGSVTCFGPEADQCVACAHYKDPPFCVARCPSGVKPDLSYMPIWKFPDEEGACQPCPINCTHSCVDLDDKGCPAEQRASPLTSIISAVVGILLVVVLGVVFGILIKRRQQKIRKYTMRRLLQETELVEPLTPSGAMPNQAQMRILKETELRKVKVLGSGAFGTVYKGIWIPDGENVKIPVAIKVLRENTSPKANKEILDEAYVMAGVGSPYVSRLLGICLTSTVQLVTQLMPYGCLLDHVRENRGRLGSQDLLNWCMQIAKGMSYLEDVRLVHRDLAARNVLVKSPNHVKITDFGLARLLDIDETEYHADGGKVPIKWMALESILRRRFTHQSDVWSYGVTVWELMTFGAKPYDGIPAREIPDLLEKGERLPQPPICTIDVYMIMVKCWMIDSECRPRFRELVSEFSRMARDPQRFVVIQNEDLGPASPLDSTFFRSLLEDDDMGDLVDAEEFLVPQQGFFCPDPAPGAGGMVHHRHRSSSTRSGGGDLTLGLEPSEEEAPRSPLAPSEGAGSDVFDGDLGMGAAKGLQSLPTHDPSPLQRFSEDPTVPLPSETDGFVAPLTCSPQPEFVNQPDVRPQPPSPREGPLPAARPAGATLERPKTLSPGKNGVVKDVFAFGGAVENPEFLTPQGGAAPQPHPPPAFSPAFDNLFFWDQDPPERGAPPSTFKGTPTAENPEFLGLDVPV

COc1ccc(-c2ccco2)cc1Nc1ncnc2[nH]nc(-c3ccco3)c12 [55A]
pIC50 (HER2+/2VE Ba/F3 line): 6.04
GI50 (Axl+ Ba/F3 cells): > 3.33 µM
GI50 [1]: 0.0395 µM
pIC50 [2]: < 5.00

CC(=O)c1cccc(-c2n[nH]c3ncnc(Nc4cc(-c5ccccc5)ccc4C)c23)c1 [Cmpd 5-001A]
pIC50 (HER2+/2VE Ba/F3 line): < 5.48
GI50 (Axl+ Ba/F3 cells): > 3.33 µM
GI50 [1]: > 3.33 µM
pIC50 [2]: < 5.00

CC(=O)c1cccc(-c2n[nH]c3ncnc(Nc4ccc(Oc5ccccc5)cc4)c23)c1 [Cmpd 5-001B]
pIC50 (HER2+/2VE Ba/F3 line): < 5.00
GI50 (Axl+ Ba/F3 cells): > 10 µM
GI50 [1]: > 10 µM
pIC50 [2]: < 5.00

COc1ccc(-c2ccccc2)cc1Nc1ncnc2[nH]ncc12 [Cmpd 5-004]
pIC50 (HER2+/2VE Ba/F3 line): 5.50
GI50 (Axl+ Ba/F3 cells): 6.94 µM
GI50 [1]: 2.59 µM
pIC50 [2]: < 5.48

COc1ccc(-c2ccccc2)cc1Nc1ncnc2[nH]nc(-c3ccoc3)c12 [Cmpd 13]
pIC50 (HER2+/2VE Ba/F3 line): 5.47
GI50 (Axl+ Ba/F3 cells): 2.96 µM
GI50 [1]: 0.839 µM
pIC50 [2]: < 5.00

COc1ccc(-c2ccccc2C)cc1Nc1ncnc2[nH]nc(-c3ccsc3)c12 [Cmpd 39A]
pIC50 (HER2+/2VE Ba/F3 line): < 5.00
GI50 (Axl+ Ba/F3 cells): > 10 µM
GI50 [1]: > 3.33 µM
pIC50 [2]: < 5.00

COc1ccc(-c2cccc(C)c2)cc1Nc1ncnc2[nH]nc(-c3ccsc3)c12 [Cmpd 39B]
pIC50 (HER2+/2VE Ba/F3 line): < 5.48
GI50 (Axl+ Ba/F3 cells): 1.76 µM
GI50 [1]: > 3.33 µM
pIC50 [2]: < 5.48

COc1ccc(-c2ccc(C)cc2)cc1Nc1ncnc2[nH]nc(-c3ccsc3)c12 [Cmpd 39C]
pIC50 (HER2+/2VE Ba/F3 line): < 5.00
GI50 (Axl+ Ba/F3 cells): > 10 µM
GI50 [1]: > 10 µM
pIC50 [2]: < 5.00

COc1ccc(-c2cccnc2)cc1Nc1ncnc2[nH]nc(-c3ccsc3)c12 [Cmpd 39D]
pIC50 (HER2+/2VE Ba/F3 line): < 5.00
GI50 (Axl+ Ba/F3 cells): > 10 µM
GI50 [1]: > 10 µM
pIC50 [2]: < 5.00

COc1ccc(N2CCOCC2)cc1Nc1ncnc2[nH]nc(-c3ccsc3)c12 [Cmpd 41A]
pIC50 (HER2+/2VE Ba/F3 line): < 5.00
GI50 (Axl+ Ba/F3 cells): > 10 µM
GI50 [1]: > 3.33 µM
pIC50 [2]: < 5.00

COc1ccc(N2CCN(C)CC2)cc1Nc1ncnc2[nH]nc(-c3ccsc3)c12 [Cmpd 41B]
pIC50 (HER2+/2VE Ba/F3 line): < 6.00
GI50 (Axl+ Ba/F3 cells): > 1 µM
GI50 [1]: > 3.33 µM
pIC50 [2]: < 5.48

COc1ccc(C(=O)N(C)C)cc1Nc1ncnc2[nH]nc(-c3ccsc3)c12 [Cmpd 42]
pIC50 (HER2+/2VE Ba/F3 line): < 5.00
GI50 (Axl+ Ba/F3 cells): > 10 µM
GI50 [1]: > 10 µM
pIC50 [2]: < 5.00

COc1ccc(-c2ccccc2)cc1N(C)c1ncnc2[nH]nc(-c3ccsc3)c12 [Cmpd 43]
pIC50 (HER2+/2VE Ba/F3 line): < 5.48
GI50 (Axl+ Ba/F3 cells): > 3.33 µM
GI50 [1]: > 3.33 µM
pIC50 [2]: < 5.48

COc1ccc(-c2ccccc2)cc1Nc1ncnc2[nH]nc(-c3ccco3)c12 [Cmpd 45A]
pIC50 (HER2+/2VE Ba/F3 line): 6.01
GI50 (Axl+ Ba/F3 cells): 1.21 µM
GI50 [1]: 0.043 µM
pIC50 [2]: < 5.00

COc1ccc(-c2ccccc2)cc1Nc1ncnc2[nH]nc(-c3cccs3)c12 [Cmpd 45B]
pIC50 (HER2+/2VE Ba/F3 line): 5.44
GI50 (Axl+ Ba/F3 cells): 4.03 µM
GI50 [1]: 0.745 µM
pIC50 [2]: < 5.00

COc1ccc(-c2ccccc2)cc1Nc1ncnc2[nH]nc(-c3ccc[nH]3)c12 [Cmpd 45C]
pIC50 (HER2+/2VE Ba/F3 line): < 5.48
GI50 (Axl+ Ba/F3 cells): > 3.33 µM
GI50 [1]: 0.952 µM
pIC50 [2]: < 5.00

COc1ccc(-c2ccccc2)cc1Nc1ncnc2[nH]nc(-c3cccc(C(N)=O)c3)c12 [Cmpd 45D]
pIC50 (HER2+/2VE Ba/F3 line): 6.06
GI50 (Axl+ Ba/F3 cells): 0.88 µM
GI50 [1]: 0.27 µM
pIC50 [2]: 5.52

COc1ccc(-c2ccccc2)cc1Nc1ncnc2[nH]nc(-c3cn[nH]c3)c12 [Cmpd 45E]
pIC50 (HER2+/2VE Ba/F3 line): 5.87
GI50 (Axl+ Ba/F3 cells): > 10 µM
GI50 [1]: 0.053 µM
pIC50 [2]: < 5.00

CNC(=O)c1cc(-c2n[nH]c3ncnc(Nc4cc(-c5ccccc5)ccc4OC)c23)cs1 [Cmpd 45F]
pIC50 (HER2+/2VE Ba/F3 line): 5.99
GI50 (Axl+ Ba/F3 cells): 0.535 µM
GI50 [1]: 0.739 µM
pIC50 [2]: < 5.00

COc1ccc(-c2ccco2)cc1Nc1ncnc2[nH]nc(-c3cn[nH]c3)c12 [Cmpd 53B]
pIC50 (HER2+/2VE Ba/F3 line): 7.08
GI50 (Axl+ Ba/F3 cells): > 10 µM
GI50 [1]: 0.0139 µM
pIC50 [2]: < 5.00

COc1ccc(-c2ccoc2)cc1Nc1ncnc2[nH]nc(-c3ccco3)c12 [Cmpd 57A]
pIC50 (HER2+/2VE Ba/F3 line): 6.34
GI50 (Axl+ Ba/F3 cells): > 10 µM
GI50 [1]: 0.021 µM
pIC50 [2]: < 5.00

COc1ccc(-c2ccoc2)cc1Nc1ncnc2[nH]nc(-c3cn[nH]c3)c12 [Cmpd 57B]
pIC50 (HER2+/2VE Ba/F3 line): 7.08
GI50 (Axl+ Ba/F3 cells): > 10 µM
GI50 [1]: 0.0126 µM
pIC50 [2]: < 5.00

COc1ccc(-c2ccccc2)cc1Nc1ncnc2[nH]nc(-c3ccccc3)c12 [Cmpd 184]
pIC50 (HER2+/2VE Ba/F3 line): 5.89
GI50 (Axl+ Ba/F3 cells): 0.527 µM
GI50 [1]: 0.386 µM
pIC50 [2]: 5.00
